Experimental data: article PMC5030359, “Cathelicidin Antimicrobial Peptides with Reduced Activation of Toll-Like Receptor Signaling Have Potent Bactericidal Activity against Colistin-Resistant Bacteria” (mBio, 2016)
≈ marks a conversion by molar mass, not a printed value. Peptide text beside a SMILES is read from it.

How the values were obtained:
E. cloacae 4080 = test: Bacterial killing, colony formation (CFU); assay type: cell-based, Enterobacter cloacae
Protocol: The number of CFU of E. cloacae 4080 were quantified as a function of time of incubation with a 2 µM concentration of the individual peptides. In the reactions with kanamycin (Kan), 25 µg/ml of kanamycin sulfate was used. […] The initial inoculum was 10^6 CFU in LB.

E. coli = assay type: cell-based, Escherichia coli; settings: 2 µM peptide
Protocol: A total of 1 × 10^5 CFU of the bacteria were incubated for 30 min with the concentration of peptide or colistin shown. Approximately 500 CFU was then added as a droplet onto nonselective media for 18 h. […] The number shown is the median value of three or four independent assays. The number in parentheses is the standard deviation of all of the assays. […] The numbers are the means of three independent assays, and those in parentheses are the range for 1 standard deviation.
Incubation time: 0 min 5 min 30 min

K. pneumoniae = test: Bacterial killing, colony formation (CFU); assay type: cell-based, Klebsiella pneumoniae
Protocol: A total of 1 × 10^5 CFU of the bacteria were incubated for 30 min with the concentration of peptide or colistin shown. Approximately 500 CFU was then added as a droplet onto nonselective media for 18 h. […] The number shown is the median value of three or four independent assays. The number in parentheses is the standard deviation of all of the assays. […] (C) Quantitative analysis of the viable colonies formed by colistin-resistant bacteria. […] The numbers are the means of three independent assays, and those in parentheses are the range for 1 standard deviation.

V. fischeri = test: Bacterial killing, colony formation (CFU); assay type: cell-based; settings: 2 µM peptide, 30 min incubation
V. angustum = test: Bacterial killing, colony formation (CFU); assay type: cell-based; settings: 2 µM peptide, 30 min incubation
V. vulnificus = assay type: cell-based, Vibrio vulnificus; settings: 5 min with 100 µM ampicillin or 4 µM SMAP-29D, relative to PBS control cells
Protocol: (§1) The number of CFU of E. cloacae 4080 were quantified as a function of time of incubation with a 2 µM concentration of the individual peptides. In the reactions with kanamycin (Kan), 25 µg/ml of kanamycin sulfate was used. […] The initial inoculum was 10^6 CFU in LB. […] (D to F) Fluorescence microscopy of V. vulnificus cells. […] An enlarged image of a single cell is highlighted in the boxed region. White arrows denote bulges extending from the bacterial membrane. […] Bacterial DNA is stained with DAPI (blue). […] The fate of cellular cytoplasmic contents was tracked following expression of a FliM-tdTomato fusion protein (red).

V. cholerae = assay type: cell-based, Vibrio cholerae; settings: 5 min with 100 µM ampicillin or 4 µM SMAP-29D, relative to PBS control cells
Protocol: as §1

[1] = 2 µM peptide, 30 min incubation
[2] = broth microdilution, CAMHB, at least three independent assays

Protocol for 19 Gram-negative strains: (A) Sequences of the cathelicidins, the numbers of bacterial strains killed, and hRBC lysis by the cathelicidins. […] The bacterial species tested are Klebsiella pneumoniae (K. p.), Serratia marcescens (S. m.), Enterobacter cloacae (E. cl.), Escherichia coli (E. c.), and Pseudomonas aeruginosa (P. a.). MICs were determined by the microdilution assay. […] The results are the median values of at least three independent assays.
We tested a panel of cathelicidins for inhibiting growth of 19 Gram-negative strains from the family Enterobacteriaceae and the nonfermentative bacteria. The species tested were Enterobacter cloacae ([2]), Escherichia coli ([5]), Klebsiella pneumoniae ([4]), Pseudomonas aeruginosa ([4]), and Serratia marcescens ([4]). All of the strains selected have been characterized for their antibiotic resistance profiles.
(§2) Antimicrobial activity was determined using the broth microdilution method based on the guidelines of the Clinical and Laboratory Standards Institute (CLSI) ([39]), using cation-adjusted Mueller-Hinton broth (CAMHB) as the testing medium. Reference Gram-positive and Gram-negative bacteria were tested, including both enteric and Pseudomonas aeruginosa strains. Each MIC was determined in at least three independent assays.
Protocol for E. faecalis: as §2
Protocol for Enterobacter cloacae: (§3) The bacterial species tested are Klebsiella pneumoniae (K. p.), Serratia marcescens (S. m.), Enterobacter cloacae (E. cl.), Escherichia coli (E. c.), and Pseudomonas aeruginosa (P. a.). MICs were determined by the microdilution assay. […] The results are the median values of at least three independent assays.
as §2
Protocol for Escherichia coli: as §3, §2
Protocol for Klebsiella pneumoniae: as §3, §2
Protocol for Pseudomonas aeruginosa: as §3, §2
Protocol for S. aureus: as §2
Protocol for Serratia marcescens: as §3, §2

`CC[C@H](C)[C@H](NC(=O)[C@@H](NC(=O)[C@@H]1CCCN1C(=O)[C@H](CO)NC(=O)[C@H](CC(C)C)NC(=O)[C@H](CCCCN)NC(=O)[C@H](CCCCN)NC(=O)[C@H](Cc1ccccc1)NC(=O)[C@H](CC(C)C)NC(=O)[C@H](CCCCN)NC(=O)[C@H](CCCCN)NC(=O)[C@H](CC(C)C)NC(=O)[C@H](CCCCN)NC(=O)[C@H](CCCCN)NC(=O)[C@H](CCCNC(=N)N)NC(=O)[C@H](CC(C)C)NC(=O)[C@H](CCCNC(=N)N)NC(=O)[C@H](CCCCN)NC(=O)[C@H](Cc1ccccc1)NC(=O)[C@H](CCCNC(=N)N)NC(=O)CN)C(C)C)C(=O)N1CCC[C@H]1C(=O)N[C@@H](CC(C)C)C(=O)N[C@@H](CC(C)C)C(=O)N[C@@H](Cc1c[nH]cn1)C(=O)N[C@@H](CC(C)C)C(=O)NCC(=O)O` [BMAP-27B] (H-GRFKRLRKKLKKLFKKLSPVIPLLHLG-OH) was tested, and the “Fold redu. from To, En. cloacae 4080, 5 min” value (E. cloacae 4080) was 2400, the “Fold redu. from To, En. cloacae 4080, 30 min” value (E. cloacae 4080) was > 19,200 and the “CFU/ml (SD) En. cloacae 4080, 5 min” value (E. cloacae 4080; 2 µM peptide (sub-heading; title says 1 µM), 5 min incubation) was less than 200 CFU/ml. For the same molecule, the “reduction in CFU, 120 min” value (E. cloacae 4080; 2 µM peptide, 120-min incubation, E. cloacae) was greater than 4 log10 unit, the “CFU/ml (SD) En. cloacae 4080, 30 min” value (E. cloacae 4080; [1]) was less than 25 CFU/ml and the “CFU/ml (SD) E. coli IU-342, 5 min” value (E. coli; 5 min incubation) was less than 200 CFU/ml. For the same molecule, the “Fold redu. from To, E. coli IU-342, 5 min” value (E. coli; 5 min incubation) was 850 fold, the “CFU/ml (SD) E. coli IU-342, 30 min” value (E. coli; 30 min incubation) was less than 25 CFU/ml and the “Fold redu. from To, E. coli IU-342, 30 min” value (E. coli; 30 min incubation) was > 6,800 fold. The “CFU/ml (SD) K. pneumonia 8893, 5 min” value (K. pneumoniae; 2 µM peptide, 5 min incubation) was less than 200 CFU/ml, the “Fold redu. from To, K. pneumonia 8893, 5 min” value (K. pneumoniae; 2 µM peptide, 5 min incubation) was 1050 fold and the “Fold redu. from To, K. pneumonia C-2, 5 min” value (K. pneumoniae; 2 µM peptide, 5 min incubation) was 25 fold. For the same molecule, the “CFU/ml (SD) K. pneumonia 8893, 30 min” value (K. pneumoniae; [1]) was less than 25 CFU/ml, the “CFU/ml (SD) K. pneumonia C-2, 30 min” value (K. pneumoniae; [1]) was 50 CFU/ml and the “Fold redu. from To, K. pneumonia 8893, 30 min” value (K. pneumoniae; [1]) was > 8,400 fold. The “Fold redu. from To, K. pneumonia C-2, 30 min” value (K. pneumoniae; [1]) was > 13,000 fold, the “reduction in CFU, colistin-resistant K. pneumoniae” value (K. pneumoniae; 2 µM, Fig. 5C (K. pneumoniae 59) and data not shown) was greater than 2 log10 unit and the “CFU/ml (SD) V. fischeri, 30 min” value (V. fischeri) was less than 20 CFU/ml. For the same molecule, the “Fold redu. from To, V. fischeri, 30 min” value (V. fischeri) was > 48,000 fold, the “CFU/ml (SD) V. angustum, 30 min” value (V. angustum) was 27 CFU/ml and the “Fold redu. from To, V. angustum, 30 min” value (V. angustum) was > 88,460 fold. The “# strains inhibited at 16 µg/ml peptide E. cl.” value (Enterobacter cloacae) was 2/2, the “MIC E. cloacae 4092” value (Enterobacter cloacae; [2]) was 4 µg/mL (≈ 1.24 µM) and the “# strains inhibited at 16 µg/ml peptide E. c.” value (Escherichia coli) was 6/6. The “MIC E. coli MC4100” value (Escherichia coli; [2]) was 4 µg/mL (≈ 1.24 µM), the “# strains inhibited at 16 µg/ml peptide K. p.” value (Klebsiella pneumoniae) was 4/4 and the “# strains inhibited at 16 µg/ml peptide P. a.” value (Pseudomonas aeruginosa) was 4/4. For the same molecule, the “MIC P. aeruginosa 4083” value (Pseudomonas aeruginosa) was 4 µg/mL (≈ 1.24 µM), the “MIC P. aeruginosa PAO1” value (Pseudomonas aeruginosa) was 4 µg/mL (≈ 1.24 µM) and the “MIC P. aeruginosa PAO1 ΔOprD” value (Pseudomonas aeruginosa; [2]) was 4 µg/mL (≈ 1.24 µM). The “# strains inhibited at 16 µg/ml peptide S. m.” value (Serratia marcescens) was 3/3, the “No. of strains inhibited at 16 µg/ml/total no. of strains” value (19 Gram-negative strains) was 19/19 and the “MIC E. faecalis 29212” value (E. faecalis) was greater than 32 µg/mL. The “MIC E. faecalis 51299” value (E. faecalis) was greater than 32 µg/mL, the “MIC S. aureus 25923” value (S. aureus) was 32 µg/mL (≈ 9.95 µM) and the “MIC S. aureus 29213” value (S. aureus) was 32 µg/mL (≈ 9.95 µM).

In the case of `CC1(C)S[C@@H]2[C@H](NC(=O)[C@H](N)c3ccccc3)C(=O)N2[C@H]1C(=O)O` [ampicillin], the “reduction in CFU, V. vulnificus” value (V. vulnificus) is reported as “less than 1 log10 unit” and the “reduction in CFU, V. cholerae” value (V. cholerae) is reported as “less than 1 log10 unit”.
